# From ChEMBL document CHEMBL1201862, “PubChem BioAssay data set” (2004)
#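 Each compound was tested at five concentrations against cells in 96-well plates for 48 hours. GI50 = concentration required for 50% inhibition of growth.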 Activity calls are given as the source filed them. Rule as the data show it: active = GI50 up to about 1.1 µM and inactive = higher.
# Assays:
# Assay in all cases: growth of human tumour cells (NCI), 48 h
# [1] = system: KM12
# [2] = system: OVCAR-8
# [3] = system: RPMI-8226
# [4] = system: SF-539
# [5] = system: OVCAR-4
# [6] = system: UACC-62
# [7] = system: HCT-116
# [8] = system: SN12C
# [9] = system: A549
# [10] = system: HCC 2998
# [11] = system: CAKI-1
# [12] = system: NCI-H460
# [13] = system: K562
# [14] = system: HCT-15
# [15] = system: TK-10
# [16] = system: HOP-92
# [17] = system: DU-145
# [18] = system: PC-3
# [19] = system: Hs-578T
# [20] = system: NCI/ADR-RES
SMILES,GI50 [1],GI50 [2],GI50 [3],GI50 [4],GI50 [5],GI50 [6],GI50 [7],GI50 [8],GI50 [9],GI50 [10],GI50 [11],GI50 [12],GI50 [13],GI50 [14] [µM],GI50 [15],GI50 [16],GI50 [17],GI50 [18],GI50 [19],GI50 [20]
Nc1nc(CCC(=O)Nc2cccc(C(F)(F)F)c2)cc(-c2ccc3ccccc3c2)n1,> 100 µM (inactive),> 100 µM (inactive),> 100 µM (inactive),> 100 µM (inactive),> 100 µM (inactive),> 100 µM (inactive),> 100 µM (inactive),> 100 µM (inactive),> 100 µM (inactive),> 100 µM (inactive),> 100 µM (inactive),> 100 µM (inactive),> 100 µM (inactive),> 100,> 100 µM (inactive),> 100 µM (inactive),,,,
CCOC(=O)CO/N=C\C1=CC(=O)C2CC1C2(C)C (stereo unspecified),> 100 µM (inactive),> 100 µM (inactive),> 100 µM (inactive),> 100 µM (inactive),,> 100 µM (inactive),> 100 µM (inactive),> 100 µM (inactive),,,> 100 µM (inactive),,> 100 µM (inactive),> 100,> 100 µM (inactive),,> 100 µM (inactive),> 100 µM (inactive),> 100 µM (inactive),> 100 µM (inactive)
Cc1cc(C)nc(/C(=N\NC(N)=O)C(=O)Nc2nc3ccc(C)cc3s2)c1,> 100 µM (inactive),> 100 µM (inactive),> 48.2 µM (inactive),> 100 µM (inactive),> 100 µM (inactive),> 100 µM (inactive),> 56.5 µM (inactive),> 100 µM (inactive),> 100 µM (inactive),> 100 µM (inactive),> 100 µM (inactive),> 100 µM (inactive),> 61.4 µM (inactive),> 70,> 100 µM (inactive),> 100 µM (inactive),,,,
COc1ccc(/C(=N\NC(=S)NN)C(c2ccc(OC)cc2)C2C(=O)Oc3ccccc32)cc1 (stereo unspecified),> 10 µM (inactive),> 10 µM (inactive),> 10 µM (inactive),> 10 µM (inactive),> 10 µM (inactive),> 10 µM (inactive),> 10 µM (inactive),> 10 µM (inactive),> 10 µM (inactive),9.31 µM (inactive),> 10 µM (inactive),> 10 µM (inactive),> 10 µM (inactive),> 10,> 10 µM (inactive),> 10 µM (inactive),,,,
COC1CCC(OC)C(C2(C3CC(OC)CCC3OC)OC(=O)c3ccccc32)C1 (stereo unspecified),38.9 µM (inactive),> 100 µM (inactive),19.8 µM (inactive),> 100 µM (inactive),70.8 µM (inactive),94.8 µM (inactive),> 100 µM (inactive),> 100 µM (inactive),> 100 µM (inactive),66.4 µM (inactive),> 100 µM (inactive),86.3 µM (inactive),22.2 µM (inactive),37,> 100 µM (inactive),> 100 µM (inactive),,,,
c1ccc2c(C3NCCc4nc[nH]c43)cccc2c1 (stereo unspecified),> 100 µM (inactive),> 100 µM (inactive),> 100 µM (inactive),> 100 µM (inactive),> 100 µM (inactive),> 100 µM (inactive),> 100 µM (inactive),> 100 µM (inactive),> 100 µM (inactive),> 100 µM (inactive),> 100 µM (inactive),> 100 µM (inactive),> 100 µM (inactive),> 100,> 100 µM (inactive),> 100 µM (inactive),,,,
CCOP(=O)(OCC)C(N)Cc1ccc(OC)c(OC)c1 (stereo unspecified),> 100 µM (inactive),> 100 µM (inactive),> 100 µM (inactive),> 100 µM (inactive),> 100 µM (inactive),> 100 µM (inactive),> 100 µM (inactive),> 100 µM (inactive),> 100 µM (inactive),> 100 µM (inactive),> 100 µM (inactive),> 100 µM (inactive),> 100 µM (inactive),> 100,> 100 µM (inactive),> 100 µM (inactive),> 100 µM (inactive),> 100 µM (inactive),,> 100 µM (inactive)
COc1ccc(/C=C2/S/C(=N\c3ccccc3)N(NC(=O)Cc3ccccc3)C2=O)cc1,> 100 µM (inactive),> 100 µM (inactive),> 100 µM (inactive),> 100 µM (inactive),74.3 µM (inactive),> 100 µM (inactive),> 100 µM (inactive),> 100 µM (inactive),> 100 µM (inactive),> 100 µM (inactive),,> 100 µM (inactive),> 100 µM (inactive),> 100,> 100 µM (inactive),> 100 µM (inactive),> 100 µM (inactive),,> 100 µM (inactive),> 100 µM (inactive)
CCOC(=O)c1sc2nc1CSc1sc(=S)sc1SCc1nc(sc1C(=O)OCC)-c1nc(c(C(=O)OCC)s1)CSc1sc(=S)sc1SCc1nc-2sc1C(=O)OCC,> 10 µM (inactive),> 10 µM (inactive),> 10 µM (inactive),> 10 µM (inactive),> 10 µM (inactive),> 10 µM (inactive),> 10 µM (inactive),> 10 µM (inactive),> 10 µM (inactive),> 10 µM (inactive),> 10 µM (inactive),> 10 µM (inactive),> 10 µM (inactive),> 10,> 10 µM (inactive),> 10 µM (inactive),,> 10 µM (inactive),> 10 µM (inactive),> 10 µM (inactive)
